From patent publication US7772177B2, “BIR domain binding compounds” (Aegera Therapeutics, Inc., priority 2005, dated 2010)

Columns and labels:
[1] = biological target: T1, GST-XIAP BIR3RING (Homo sapiens, UniProt P98170); assay: Fluorescence polarization-based competition assay, XIAP Bir3-RING; assay type: binding
T1 construct: made in house; host or cells: E. coli DH5-alpha
Procedure: GST-XIAP BIR3RING: XIAP coding sequence amino acids 246-497 cloned into PGEX2T1 via BamH1 and AVA I. The plasmid was transformed into E. coli DH5α for use in protein expression and purification.
(§1) A fluorescent peptide probe, Fmoc-Ala-Val-Pro-Phe-Tyr(t-Bu)-Leu-Pro-Gly(t-Bu)-Gly-OH was prepared using standard Fmoc chemistry on 2-chlorotrityl chloride resin (Int. J. Pept. Prot. Res. 38:555-561, 1991). Cleavage from the resin was performed using 20% acetic acid in dichloromethane (DCM), which left the side chain still blocked. The C-terminal protected carboxylic acid was coupled to 4′-(aminomethyl)fluorescein (Molecular Probes, A-1351; Eugene, Oreg.) using excess diisopropylcarbodiimide (DIC) in dimethylformamide (DMF) at room temperature and was purified by silica gel chromatography (10% methanol in DCM). The N-terminal Fmoc protecting group was removed using piperidine (20%) in DMF, and purified by silica gel chromatography (20% methanol in DCM, 0.5% HOAc). Finally, the t-butyl side chain protective groups were removed using 95% trifluoroacetic acid containing 2.5% water and 2.5% triisopropyl silane. […] Compound #174 was also used as a fluorescent probe in this assay.
(§2) For all assays, the fluorescence and fluorescence-polarization was evaluated using a Tecan Polarion instrument with the excitation filter set at 485 nm and the emission filter set at 535 nm. For each assay, the concentration of the target protein was first establish by titration of the selected protein in order to produce a linear dose-response signal when incubated alone in the presence of the fluorescent probe. Upon establishing these conditions, the compounds potency (IC50) and selectivity, was assessed in the presence of a fix defined-amount of target protein and fluorescent probe and a 10 point serial dilution of the selected compounds. For each IC50 curve, the assays were run as followed: 25 ul/well of diluted compound in 50 mM MES buffer pH 6.5 were added into a black 96 well plate then 25 ul/well of bovine serum albumin (BSA) at 0.5 mg/ml in 50 mM MES pH 6.5. Auto-fluorescence for each compound was first assessed by performing a reading of the compound/BSA solution alone. Then 25 ul of the fluorescein probe diluted into 50 mM MES containing 0.05 mg/ml BSA were added and a reading to detect quenching of fluorescein signal done. Finally 25 ul/well of the target or control protein (GST-BIRs) diluted at the appropriate concentration in 50 mM MES containing 0.05 mg/ml BSA were added and the fluorescence polarization evaluated.
(§3) For each assay the relative polarization-fluorescence units were plotted against the final concentrations of compound and the IC50 calculated using the Grad pad prism software and/or Cambridge soft. The ki value were derived from the calculated IC50 value as described above and according to the equation described in Nikolovska-Coleska, Z. (2004) Anal Biochem 332, 261-273.
(§4) Compounds exemplified in Table 6 were tested and found to have IC50s in the following ranges: A: >10 μM; B: <10 μM; C: <1 μM using the fluorescence polarization assay, as shown in Table 5. Each of the IC50s was calculated from Graph Pad.

[2] = biological target: T2, GST-HIAP1(cIAP-2) BIR 3 (Homo sapiens, UniProt Q13489); assay: Fluorescence polarization-based competition assay, cIAP-2 Bir3; assay type: binding
T2 construct: made in house; host or cells: E. coli DH5-alpha
Procedure: GST-HIAP1(cIAP-2) BIR 3: HIAP1 coding sequence from amino acids 236-349, cloned into PGex4T3 via BamH1 and XhoI. The plasmid was transformed into E. coli DH5α for use in protein expression and purification.
as §1, §2, §3, §4

[3] = biological target: T3, GST-HIAP2 (cIAP-1) BIR 3 (Homo sapiens, UniProt Q13490); assay: Fluorescence polarization-based competition assay, cIAP-1 Bir3; assay type: binding
T3 construct: made in house; host or cells: E. coli DH5-alpha
Procedure: GST-HIAP2 (cIAP-1) BIR 3: HIAP2 coding sequence from amino acids 251-363 cloned into PGex4T3 via BamH1 and XhoI. The plasmid was transformed into E. coli DH5α for use in protein expression and purification.
as §1, §2, §3, §4

[4] = biological target: T4, XIAP Bir3-RING (GST-BIR 3RING) (Homo sapiens, UniProt P98170); assay: Caspase de-repression assay using cellular extracts (apoptosome), XIAP Bir3-RING; assay type: biochemical; settings: 293 cell S100 extract
T4 construct: made in house; host or cells: E. coli DH5-alpha
Procedure: 100 ug of 293 cell S100 extract and 0.25 uM-2 uM of GST-Xiap fusion protein (GST-BIR 3RING, GST-linker BIR2 BIR3RING) were co-incubated with serial dilutions of compound (0.02 uM-40 uM). Extracts were activated by adding 1 mM dATP, 0.1 mM ALLN, 133 ug Cytochrome C (final concentrations), and incubating at 37° C. for 25 minutes. All reactions and dilutions used S100 buffer (50 mM Pipes pH 7.0, 50 mM KCl, 0.5 mM EGTA pH 8.0, 2 mM MgCl2 supplemented with 1/1000 dilutions of 2 mg/ml Cytochalisin B, 2, mg/ml Chymotstatin, Leupeptin, Pepstatin, Antipain, 0.1M PMSF, 1M DTT). Final reaction volume was 30 ul. Caspase-3 activity was measured by overlaying 30 ul of a 0.4 mM DEVD-AMC solution. AMC cleavage was measured in a TECAN spectrophotometer at 360 nm excitation and 444 nm emission, on a kinetic cycle of 1 hour with readings taken every 5 minutes. Caspase activity was calculated as Vo of AMC fluorescence/sec. Caspase de-repression by our compounds were compared to fully activated extract and activated extract repressed by the presence of XIAP fusion protein.
Results: Compounds were also tested in the apoptosome assay and the linker-BIR2/caspase-3 inhibition assay and found to have IC50s in the following ranges: A: >10 μM; B: <10 μM; C: <1 μM, as shown in Table 7.

T1 sequence (P98170 246-497): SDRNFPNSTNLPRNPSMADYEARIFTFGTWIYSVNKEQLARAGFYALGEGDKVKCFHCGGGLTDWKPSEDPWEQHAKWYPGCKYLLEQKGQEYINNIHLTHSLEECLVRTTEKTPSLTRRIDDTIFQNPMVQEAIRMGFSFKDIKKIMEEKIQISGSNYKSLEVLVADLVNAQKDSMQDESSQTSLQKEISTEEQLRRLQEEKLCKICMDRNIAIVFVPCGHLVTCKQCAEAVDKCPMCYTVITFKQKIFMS
T2 sequence (Q13489 236-349): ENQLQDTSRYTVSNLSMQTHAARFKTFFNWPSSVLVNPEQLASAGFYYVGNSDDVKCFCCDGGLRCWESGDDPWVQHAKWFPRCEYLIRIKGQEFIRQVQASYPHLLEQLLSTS
T3 sequence (Q13490 251-363): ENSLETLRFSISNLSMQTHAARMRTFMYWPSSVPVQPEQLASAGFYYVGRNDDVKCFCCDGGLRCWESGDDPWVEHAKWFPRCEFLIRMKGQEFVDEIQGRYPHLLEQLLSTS
T4 sequence (P98170 246-497): as the sequence (P98170 246-497) above

| Structure (SMILES) | IC50 [1] [µM] | IC50 [2] [µM] | IC50 [3] [µM] | IC50 [4] [µM] |
| --- | --- | --- | --- | --- |
| CC[C@H](N)C(=O)N(CCc1ccccc1)C[C@@H]1CCCN1C(=O)[C@@H](NC(=O)[C@H](C)NC)C(C)(C)C [Compound 39] | < 1 | < 1 | < 1 | – |
| CC(=O)N(CCCc1ccccc1)C[C@@H]1CCCN1C(=O)[C@@H](NC(=O)[C@H](C)N)C(C)C [Compound 11] | < 10 | < 10 | < 10 | < 1 |
| CN[C@@H](C)C(=O)N[C@H](C(=O)N1CCC[C@H]1CN(CCc1ccccc1)C(=O)[C@H]1CCCN1)C(C)(C)C [Compound 50] | < 1 | < 1 | < 1 | – |
| CN[C@@H](C)C(=O)N[C@H](C(=O)N1CCC[C@H]1CN(CCc1ccccc1)S(=O)(=O)Cc1ccccc1)C(C)(C)C [Compound 68] | < 1 | < 1 | < 1 | – |
| CN[C@@H](C)C(=O)N[C@H](C(=O)N1CCC[C@H]1CN(C[C@@H](C)c1ccccc1)C(=O)OCc1ccccc1)C(C)(C)C [Compound 59] | < 1 | < 1 | < 1 | – |
| CN[C@@H](C)C(=O)N[C@H](C(=O)N1CCC[C@H]1CN(CCc1ccccc1)C(=O)CNC(C)=O)C(C)(C)C [Compound 43] | < 1 | < 1 | < 1 | – |
| C[C@H](N)C(=O)N[C@H](C(=O)N1CCC[C@H]1COCc1ccccc1)C(C)(C)C [Compound 64] | < 10 | < 10 | < 10 | – |
| C#CCOC[C@H](NC(=O)[C@@H](N)CO)C(=O)N1CCC[C@H]1CN(CCc1ccccc1)C(=O)C(F)(F)F [Compound 61] | < 1 | < 1 | < 1 | – |
| CN[C@@H](C)C(=O)N[C@H](C(=O)N1CCC[C@H]1CN(CCc1ccccc1)C(=O)CNc1ccccc1)C(C)(C)C [Compound 40] | < 1 | < 1 | < 1 | – |
| CN[C@@H](C)C(=O)N[C@H](C(=O)N1CCC[C@H]1CN(CCc1ccccc1)C(=O)c1ccccc1)C(C)(C)C [Compound 47] | < 1 | < 1 | < 1 | – |
| CN[C@@H](C)C(=O)N[C@H](C(=O)N1CCC[C@H]1CN(CCc1ccccc1)S(=O)(=O)c1ccccc1)C(C)(C)C [Compound 69] | < 1 | < 1 | < 1 | – |
| CN[C@@H](C)C(=O)N[C@H](C(=O)N1CCC[C@H]1CN(CCc1ccccc1)C(=O)Cc1ccccc1)C(C)(C)C [Compound 57] | < 1 | < 1 | < 1 | – |
| CN[C@@H](C)C(=O)N[C@H](C(=O)N1CCC[C@H]1CN(CCc1ccccc1)C(=O)[C@@H]1CCCN1)C(C)(C)C [Compound 51] | < 1 | < 1 | < 1 | – |
| CN[C@@H](C)C(=O)N[C@H](C(=O)N1CCC[C@H]1CN(CCc1ccccc1)C(=O)[C@H](N)Cc1ccncc1)C(C)(C)C [Compound 56] | < 1 | < 1 | < 1 | – |
| CN[C@@H](C)C(=O)N[C@H](C(=O)N1CCC[C@H]1CN(CCc1ccccc1)C(=O)[C@H](N)CCc1ccccc1)C(C)(C)C [Compound 58] | < 10 | < 1 | < 1 | – |
| CN[C@@H](C)C(=O)N[C@H](C(=O)N1CCC[C@H]1CN(CCc1ccccc1)C(=O)[C@H](C)N)C(C)(C)C [Compound 37] | < 1 | < 1 | < 1 | – |
| CN[C@@H](C)C(=O)N[C@H](C(=O)N1CCC[C@H]1CN(CCc1ccccc1)C(=O)CN(C)C)C(C)(C)C [Compound 38] | < 1 | < 1 | < 1 | – |
| CN[C@@H](C)C(=O)N[C@H](C(=O)N1CCC[C@H]1CN(CCc1ccccc1)C(=O)[C@H](N)Cc1ccc(OC)cc1)C(C)(C)C [Compound 54] | < 1 | < 1 | < 1 | – |
| CN[C@@H](C)C(=O)N[C@H](C(=O)N1CCC[C@H]1CN(CCc1ccccc1)C(=O)CCCN)C(C)(C)C [Compound 41] | < 10 | < 1 | < 1 | – |
| CC(C)[C@H](NC(=O)[C@H](C)N)C(=O)N1CCC[C@H]1COCc1ccccc1 [Compound 63] | < 10 | > 10 | < 10 | – |
| CN[C@@H](C)C(=O)N[C@H](C(=O)N1CCC[C@H]1CN(C[C@H](C)c1ccccc1)C(=O)OCc1ccccc1)C(C)(C)C [Compound 60] | < 1 | < 10 | < 1 | – |
| CC(C)[C@H](NC(=O)[C@H](C)N)C(=O)N1CCC[C@H]1CS(=O)(=O)CCc1ccccc1 [Compound 67] | > 10 | < 10 | < 10 | – |
| CN[C@@H](C)C(=O)N[C@@H](CCCN)C(=O)N1CCC[C@H]1CN(CCc1ccccc1)C(=O)CCc1ccccc1 [Compound 49] | < 1 | < 1 | < 1 | – |
| CC[C@@H](N)C(=O)N(CCc1ccccc1)C[C@@H]1CCCN1C(=O)[C@@H](NC(=O)[C@H](C)NC)C(C)(C)C [Compound 46] | < 1 | < 1 | < 1 | – |
| CN[C@@H](C)C(=O)N[C@H](C(=O)N1CCC[C@H]1CN(CCc1ccccc1)C(=O)[C@@H](C)N)C(C)(C)C [Compound 36] | < 10 | < 1 | < 1 | – |
| CN[C@@H](C)C(=O)N[C@H](C(=O)N1CCC[C@H]1CN(CCc1ccccc1)C(=O)[C@H](N)Cc1cccnc1)C(C)(C)C [Compound 55] | < 1 | < 1 | < 1 | – |
| CC(C)[C@H](NC(=O)[C@H](C)N)C(=O)N1CCC[C@H]1CSCCc1ccccc1 [Compound 66] | < 10 | < 10 | < 10 | – |
| CC(C)[C@H](NC(=O)[C@H](C)N)C(=O)N1CCC[C@H]1CN(CCCCOC(=O)c1ccccc1)CCc1ccccc1 [Compound 65] | < 1 | < 1 | < 1 | – |
